Here are results for three compounds from US11530181B2, “IL-6 inhibitors and methods of treatment” (University of Florida Research Foundation, Incorporated, priority 2018, dated 2022).

Assay [1] concerns LIF induced STAT3 phosphorylation. In words: Western blot, LIF induced STAT3 phosphorylation in MCF7. It is filed as cell-based, human. How it is done:
(§1) Cells were harvested and lysed in cold radioimmunoprecipitation assay (RIPA) lysis buffer containing proteasome inhibitor cocktail and phosphatase inhibitor cocktail. The protein concentrations were determined using the BCA Protein Assay kit. After adding the loading buffer and boiling at 95° C. for 10 minutes, equivalent amounts of proteins were loaded on and separated by SDS-PAGE, and then were transferred to PVDF membranes. Membranes were probed with primary antibodies (1:1000) against phospho-STAT3 (Tyr705), STAT3, phospho-STAT1 (Tyr701), STAT1, phospho-STAT6 (Tyr 641), STAT6, and GAPDH, respectively, and horseradish peroxidase (HRP)-conjugated secondary antibody (1:10000) (Cell Signaling Technology, Beverly, Mass.). Membranes were analyzed using Enhanced Chemiluminescence Plus reagents and either scanned with the Storm Scanner (Amersham Pharmacia Biotech, Inc., Piscataway, N.J.) or imaged with ChemiDoc MP imaging system (Bio-Rad, Hercules, Calif.). […] The cells were harvested after 30 minutes and analyzed by Western blot.
(§2) MCF7 breast cancer cells were seeded in 10 cm plates (1 million cells per plate) and allowed to adhere overnight. […] The cells were harvested after 30 minutes and analyzed by western blotting.
(In western blotting, separated proteins are transferred to a membrane and probed.)

Assay [2] has as its system INF-γ induced STAT1 phosphorylation. In words: Western blot, INF-γ induced STAT1 phosphorylation in MCF7. Particulars: MCF7, pre-treatment 2, 3 and 4 hours. Type of assay: cell-based, human. The procedure: as §1, §2
Assay [3] concerns OSM induced STAT3 phosphorylation. In words: Western blot, OSM induced STAT3 phosphorylation in MCF7. It is filed as cell-based, human. The procedure:
as §1, §2

Assay [4] concerns IL-4 induced STAT6 phosphorylation. Kind of assay: Western blot, IL-4 induced STAT6 phosphorylation in MCF7. Particulars: MCF7, pre-treatment 2, 3 and 4 hours. Type of assay: cell-based, human. How it is done: as §1, §2
The test system of assay [5] is STAT3 phosphorylation in SUM159 cells. In words: Western blot, STAT3 phosphorylation in SUM159 (IL-6 autocrine). Type of assay: cell-based, human. The settings on record: SUM159, 1-4 μM, 16 h. The procedure: as §1
BxPC-3 and SUM159 cells were seeded in 10 cm plates (1 million cells per plate) and allowed to adhere overnight. […] Then cells were harvested and analyzed by western blotting.
SUM159 cells were seeded in 10 cm plates (1 million cells per plate) and allowed to adhere overnight. […] Then cells were harvested and analyzed by western blotting.

The target of the next assay is T1, gp130-D1-D3 (Homo sapiens, UniProt P40189).
T1 construct: residues 1-301, the numbering system is based on PDB 3L5H, which is the mature form of gp130; tandem TFH purification tag (includes FLAG, as purified on anti-FLAG M2 agarose) (C); made in house; host or cells: Hi5 insect cells (baculovirus; virus generated in sf9)
T1 sequence (P40189 23-323): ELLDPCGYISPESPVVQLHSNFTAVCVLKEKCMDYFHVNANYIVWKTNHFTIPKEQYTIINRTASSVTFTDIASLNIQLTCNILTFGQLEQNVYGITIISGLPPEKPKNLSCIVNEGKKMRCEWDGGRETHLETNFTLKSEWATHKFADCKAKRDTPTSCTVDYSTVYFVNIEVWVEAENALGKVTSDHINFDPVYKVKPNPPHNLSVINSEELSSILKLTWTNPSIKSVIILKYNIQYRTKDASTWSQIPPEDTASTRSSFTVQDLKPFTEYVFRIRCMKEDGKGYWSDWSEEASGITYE
In words: SPR direct binding to immobilized gp130-D1-D3 (CM5 chip). Particulars: for Kd: SPR, gp130-D1-D3, linear regression at low concentrations, 25% Rmax; for ΔGexp: experimental binding energy from SPR KD.

SMILES strings stand for the structures.

With `O=C(Nc1cc(F)ccc1-n1cccc1)c1ccc(OCCCN2CCCCC2)cc1` [LLM4, N-(5-fluoro-2-(1H-pyrrol-1-yl)phenyl)-4-(3-(piperidin-1-yl)propoxy)benzamide], the “LIF induced STAT3 phosphorylation” value in assay [1] (MCF7, 15 μM, 2, 3 and 4 hours) is “remain intact”. The “effect on INF-γ induced STAT1 phosphorylation” value in assay [2] (15 μM) is “no effect”. Further, in assay [3] (MCF7, 15 μM, 2, 3 and 4 hours), the “OSM induced STAT3 phosphorylation” value is “remain intact”. Besides, the “effect on IL-4 induced STAT6 phosphorylation” value in assay [4] (15 μM) is reported as “no effect”.

In general, Kd refers to the equilibrium constant for the complex coming apart. A higher Kd goes with a looser complex. Turning to `O=C(Nc1cccc(OCCN2CCCCC2)c1)Nc1cccc(-c2ccn[nH]2)c1` [LLM414, 1-(3-(1H-pyrazol-5-yl)phenyl)-3-(3-(2-(piperidin-1-yl)ethoxy)phenyl)urea], the “inhibition of STAT3 phosphorylation” value in assay [5] is listed as “inhibited STAT3 phosphorylation in SUM159 cells”. Moreover, on gp130-D1-D3, binding was characterised by a dissociation constant (Kd) of 15.6 µM and the ΔGexp was -6.55 kcal/mol.

For `O=C(Nc1ccccc1-c1ccn[nH]1)c1ccc(OCCN2CCCCC2)cc1` [LLM418, N-(2-(1H-pyrazol-5-yl)phenyl)-4-(2-(piperidin-1-yl)ethoxy)benzamide], in assay [5], the “inhibition of STAT3 phosphorylation” value is “stronger inhibition than LLM414”. For the same compound, the “inhibition of LIF induced STAT3 phosphorylation” value in assay [1] (MCF7, 4 μM) is reported as “very little inhibitory effect”. At gp130-D1-D3, this compound showed an equilibrium dissociation constant (Kd) of 20.5 µM and a ΔGexp of -6.39 kcal/mol. In assay [2], the “effect on STAT1 phosphorylation” value was “little effect”. The “inhibition of OSM induced STAT3 phosphorylation” value in assay [3] (MCF7, 4 μM) is recorded as “very little inhibitory effect”. Besides, in assay [4], the “effect on STAT6 phosphorylation” value was “little effect”.
